In brackets after ≈: the same amount, converted by molar mass.
Experiments:
[1] = Oral bioavailability in male Wistar Han rat measured up to 7 hrs by LC-MS/MS analysis; format: ADME, organism-based; conditions: in vivo
[2] = Distribution coefficient, logD of the compound by chromatography; format: physicochemical; conditions: octanol/water
[3] = Intrinsic clearance in human hepatocytes measured per gram of tissue incubated for 120 mins by LC-MS/MS method; format: ADME, cell-based, Hepatocyte; conditions: 2 h
[4] = Permeability of compound by AMP assay; format: ADME; conditions: not told; read-out: permeability
[5] = Blood clearance in male Wistar Han rat measured up to 7 hrs by LC-MS/MS analysis; format: ADME
[6] = Solubility of the compound in FaSSIF at pH 6.5 incubated for 16 hrs by HPLC gradient analysis; format: physicochemical; conditions: for solubility at 16 h: FaSSIF, pH 6.5; for solubility: simulated gi fluid, pH 6.5, 16 h
[7] = Kinetic solubility of compound […] using the charged aerosol detector (CAD) analysis; format: physicochemical; conditions: read-out: Kinetic_solubility
[8] = Intrinsic clearance in dog hepatocytes measured per gram of tissue by LC-MS/MS method; format: ADME, cell-based, Canis lupus familiaris, Hepatocyte
[9] = Blood clearance in male Wistar Han rat at 1 mg/kg, iv and 3 mg/kg, po measured up to 7 hrs by LC-MS/MS analysis; format: ADME, organism-based
[10] = Oral bioavailability in Beagle dog at 0.7 mg/kg measured up to 7 hrs by LC-MS/MS analysis; format: ADME, organism-based, Canis lupus familiaris; conditions: in vivo
[11] = Half life in Beagle dog at 0.5 mg/kg, iv and 0.7 mg/kg, po measured up to 7 hrs by LC-MS/MS analysis; format: ADME, organism-based, Canis lupus familiaris; conditions: in vivo
[12] = Intrinsic clearance in Wistar han rat hepatocytes measured per gram of tissue incubated for 60 mins by LC-MS/MS method; format: ADME, cell-based, Hepatocyte; conditions: 1 h
[13] = Volume of distribution at steady state in male Wistar Han rat at 1 mg/kg, iv and 3 mg/kg, po measured up to 7 hrs by LC-MS/MS analysis; format: ADME, organism-based; conditions: in vivo, read-out: Vdss
[14] = Oral bioavailability in male Wistar Han rat at 3 mg/kg measured up to 7 hrs by LC-MS/MS analysis; format: ADME, organism-based; conditions: in vivo
[15] = Half life in male Wistar Han rat at 1 mg/kg, iv and 3 mg/kg, po measured up to 7 hrs by LC-MS/MS analysis; format: ADME, organism-based; conditions: in vivo
[16] = Volume of distribution at steady state in Beagle dog at 0.5 mg/kg, iv and 0.7 mg/kg, po measured up to 7 hrs by LC-MS/MS analysis; format: ADME, organism-based, Canis lupus familiaris; conditions: in vivo, read-out: Vdss
[17] = Blood clearance in Beagle dog at 0.5 mg/kg, iv and 0.7 mg/kg, po measured up to 7 hrs by LC-MS/MS analysis; format: ADME, organism-based, Canis lupus familiaris
[18] = Half life in Beagle dog at 0.5 mg/kg, iv and 1 mg/kg, po measured up to 7 hrs by LC-MS/MS analysis; format: ADME, organism-based, Canis lupus familiaris; conditions: in vivo
[19] = Volume of distribution at steady state in Beagle dog at 0.5 mg/kg, iv and 1 mg/kg, po measured up to 7 hrs by LC-MS/MS analysis; format: ADME, organism-based, Canis lupus familiaris; conditions: in vivo, read-out: Vdss
[20] = Blood clearance in Beagle dog at 0.5 mg/kg, iv and 1 mg/kg, po measured up to 7 hrs by LC-MS/MS analysis; format: ADME, organism-based, Canis lupus familiaris
[21] = Volume of distribution at steady state in male Wistar Han rat at 0.5 mg/kg, iv and 3 mg/kg, po measured up to 7 hrs by LC-MS/MS analysis; format: ADME, organism-based; conditions: in vivo, read-out: Vdss
[22] = Blood clearance in male Wistar Han rat at 0.5 mg/kg, iv and 3 mg/kg, po measured up to 7 hrs by LC-MS/MS analysis; format: ADME, organism-based
[23] = Half life in male Wistar Han rat at 0.5 mg/kg, iv and 3 mg/kg, po measured up to 7 hrs by LC-MS/MS analysis; format: ADME, organism-based; conditions: in vivo
[24] = Apparent permeability across apical to basolateral side in MDCK cells; format: ADME, cell-based, Canis lupus familiaris; conditions: dog
[25] = Oral bioavailability in Beagle dog at 1 mg/kg measured up to 7 hrs by LC-MS/MS analysis; format: ADME, organism-based, Canis lupus familiaris; conditions: in vivo
[26] = Solubility of the compound by CLND assay; format: physicochemical
[27] = Solubility of the compound in FaSSIF at pH 6.5 using crystalline form of sample incubated for 16 hrs by HPLC gradient analysis; format: physicochemical

chromatographic logD [2]	CLint [3]	Papp [4]	CLint [8]	clearance [9]	CLint [12]	Vd [13]	bioavailability [14]	half-life [15]	half-life [18]	Vd [19]	clearance [20]	bioavailability [25]	solubility kinetic [26]	SMILES	clearance [5]	also measured
3.6	3.6 mL/min/g	16.5 ×10⁻⁶ cm/s												CNC(=O)c1cc(C(=O)N[C@H]2[C@@H]3COC[C@@H]32)cc2c1O[C@H](CF)[C@H]2c1ccccc1 [GSK973]	180 mL/min/kg	bioavailability [1]: 48%
2.8	2.8 mL/min/g													CC(=O)Nc1c(F)cc(C(=O)N[C@H]2CC[C@H](O)CC2)cc1O[C@@H](C)c1ccccc1 [GSK046]	82 mL/min/kg	bioavailability [1]: 31%; solubility kinetic [7]: ≥ 159 µg/mL
3.4	< 0.45 mL/min/g	19.7 ×10⁻⁶ cm/s	< 0.65 mL/min/g	21 mL/min/kg	1 mL/min/g	2.6 L/kg	57%	2.9 h						CNC(=O)c1cc(C(=O)N[C@H]2[C@@H]3C[C@@H](O)C[C@@H]32)n([C@@H](C)c2cccc(Cl)c2)n1		bioavailability [10]: 58%; half-life [11]: 5 h; solubility kinetic [7]: 175 µg/mL (≈ 434 µM); Vd [16]: 0.8 L/kg; clearance [17]: 2 mL/min/kg
2.9	< 0.5 mL/min/g	8 ×10⁻⁶ cm/s	< 0.7 mL/min/g		0.9 mL/min/g		58%		9 h	0.9 L/kg	1 mL/min/kg	30%	≥ 180 µg/mL	CNC(=O)c1cc(C(=O)N[C@H]2CC[C@H](O)CC2)n([C@@H](C)c2ccccc2)n1		solubility [6]: 366 µg/mL (≈ 988 µM); Vd [21]: 1.1 L/kg; clearance [22]: 13 mL/min/kg; half-life [23]: 1.3 h; Papp A→B [24]: 4.1 ×10⁻⁶ cm/s
2.8	< 0.5 mL/min/g	4.2 ×10⁻⁶ cm/s	< 0.7 mL/min/g	30 mL/min/kg	0.8 mL/min/g	2.1 L/kg	72%	1.3 h	5.2 h	0.8 L/kg	1.9 mL/min/kg	84%	≥ 184 µg/mL	CNC(=O)c1cc(C(=O)N[C@H]2CC[C@H](O)CC2)c([C@@H](C)c2ccccc2)o1		solubility [6]: 827 µg/mL (≈ 2230 µM); Papp A→B [24]: 4.9 ×10⁻⁶ cm/s
4.1	< 0.45 mL/min/g	20 ×10⁻⁶ cm/s	< 0.65 mL/min/g	55 mL/min/kg	< 0.8 mL/min/g	2.7 L/kg	100%	0.7 h	5 h	1.1 L/kg	2.9 mL/min/kg	100%	≥ 131 µg/mL	CNC(=O)c1cc(C(=O)N[C@H]2[C@@H]3COC[C@@H]32)c([C@@H](C)c2ccccc2)o1		solubility thermodynamic at 16 h [27]: 980 µg/mL (≈ 2770 µM)

SMILES	chromatographic logD [2]	CLint [3]	Papp [4]	CLint [8]	clearance [9]	CLint [12]	Vd [13]	bioavailability [14]	half-life [15]	half-life [18]	Vd [19]	clearance [20]	bioavailability [25]	solubility kinetic [26]	clearance [5]	also measured
CNC(=O)c1cc(C(=O)NC2CC2)cn(Cc2ccccc2)c1=O [GSK620]		3.1 mL/min/g													75 mL/min/kg	solubility at 16 h [6]: 13 µg/mL (≈ 40 µM)
CNC(=O)c1cc(C(=O)NC2CC2)cn(Cc2cccc3[nH]ccc23)c1=O		2.9 mL/min/g													128 mL/min/kg	solubility at 16 h [6]: 17 µg/mL (≈ 46.7 µM)

Reference: ChEMBL document CHEMBL4834464, “Fragment-based Scaffold Hopping: Identification of Potent, Selective, and Highly Soluble Bromo and Extra Terminal Domain (BET) Second Bromodomain (BD2) Inhibitors” (J Med Chem, 2021)
